Drawing on patent US11014911B2, “CDK2 inhibitors” (Pfizer Inc., priority 2019, dated 2021), this text covers Ki for 31 compounds.

This experiment deals with CDK2/Cyclin E1 full length (Homo sapiens (Human), UniProt P24941). As to the kind of experiment: CDK2/Cyclin E1 full length mobility shift assay. The format is biochemical.
As usually defined, the Ki is the equilibrium dissociation constant of an inhibitor or competing ligand from its target. On to `C[C@@H](CF)NC(=O)O[C@@H]1CC[C@H](c2cc(NC(=O)Cc3cnn(C)c3)n[nH]2)C1` [Example 378, (1R,3S)-3-(3-{[(1-methyl-1H-pyrazol-4-yl)acetyl]amino}-1H-pyrazol-5-yl)cyclopentyl [(2S)-1-fluoropropan-2-yl]carbamate], for which the Ki stood at 0.83 nM.
`Cc1cnc(CC(=O)Nc2cc([C@H]3CC[C@@H](OC(=O)N[C@@H](C)CF)C3)[nH]n2)o1` [Example 379, (1R,3S)-3-(3-{[(5-methyl-1,3-oxazol-2-yl)acetyl]amino}-1H-pyrazol-5-yl)cyclopentyl [(2S)-1-fluoropropan-2-yl]carbamate]: the Ki amounted to 3.05 nM.
As for `C[C@H](NC(=O)O[C@@H]1CC[C@H](c2cc(NC(=O)Cc3cnn(C)c3)n[nH]2)C1)[C@@H](C)F` [Example 380, (1R,3S)-3-(3-{[(1-methyl-1H-pyrazol-4-yl)acetyl]amino}-1H-pyrazol-5-yl)cyclopentyl [(2S,3R)-3-fluorobutan-2-yl]carbamate], the Ki was 0.63 nM.
Next, `Cc1coc(CC(=O)Nc2cc([C@H]3CC[C@@H](OC(=O)N[C@H](C)CC(F)(F)F)C3)[nH]n2)n1` [Example 395, (1R,3S)-3-(3-{[(4-methyl-1,3-oxazol-2-yl)acetyl]amino}-1H-pyrazol-5-yl)cyclopentyl [(2R)-4,4,4-trifluorobutan-2-yl]carbamate]: 1.43 nM.
Consider `COc1cc(C(=O)Nc2cc([C@H]3CC[C@@H](OC(=O)N[C@H](C)CC(F)(F)F)C3)[nH]n2)n(C)n1` [Example 402, (1R,3S)-3-(3-{[(3-methoxy-1-methyl-1H-pyrazol-5-yl)carbonyl]amino}-1H-pyrazol-5-yl)cyclopentyl [(2R)-4,4,4-trifluorobutan-2-yl]carbamate], for which the inhibitory constant (Ki) came to 1.54 nM.
Then `CC[C@H](C)CNC(=O)O[C@@H]1CC[C@H](c2cc(NC(=O)Cc3cnc(C)o3)n[nH]2)C1` [Example 416, (1R,3S)-3-(3-{[(2-methyl-1,3-oxazol-5-yl)acetyl]amino}-1H-pyrazol-5-yl)cyclopentyl [(2S)-2-methylbutyl]carbamate], with 2.27 nM.
In the case of `CC(C)(C)CNC(=O)O[C@@H]1CC[C@H](c2cc(NC(=O)Cc3ccno3)n[nH]2)C1` [Example 418, (1R,3S)-3-{3-[(1,2-oxazol-5-ylacetyl)amino]-1H-pyrazol-5-yl}cyclopentyl (2,2-dimethylpropyl)carbamate], the Ki was determined as 2.69 nM.
Then `CC1(NC(=O)O[C@@H]2CC[C@H](c3cc(NC(=O)Cc4ccon4)n[nH]3)C2)CC1` [Example 419, (1R,3S)-3-{3-[(1,2-oxazol-3-ylacetyl)amino]-1H-pyrazol-5-yl}cyclopentyl (1-methylcyclopropyl)carbamate], with 0.36 nM; and `CC1(NC(=O)O[C@@H]2CC[C@H](c3cc(NC(=O)Cc4ccccn4)n[nH]3)C2)CC1` [Example 420, (1R,3S)-3-{3-[(pyridin-2-ylacetyl)amino]-1H-pyrazol-5-yl}cyclopentyl (1-methylcyclopropyl)carbamate], with 0.54 nM.
Take `Cn1ccc(CC(=O)Nc2cc([C@H]3CC[C@@H](OC(=O)NC4(C)CC4)C3)[nH]n2)n1` [Example 421, (1R,3S)-3-(3-{[(1-methyl-1H-pyrazol-3-yl)acetyl]amino}-1H-pyrazol-5-yl)cyclopentyl (1-methylcyclopropyl)carbamate]: the inhibitory constant (Ki) is 0.94 nM.
Take `Cc1coc(CC(=O)Nc2cc([C@H]3CC[C@@H](OC(=O)NC4(C)CC4)C3)[nH]n2)n1` [Example 422, (1R,3S)-3-(3-{[(4-methyl-1,3-oxazol-2-yl)acetyl]amino}-1H-pyrazol-5-yl)cyclopentyl (1-methylcyclopropyl)carbamate]: the Ki came to 0.55 nM.
As to `CC1(NC(=O)O[C@@H]2CC[C@H](c3cc(NC(=O)Cc4cscn4)n[nH]3)C2)CC1` [Example 423, (1R,3S)-3-{3-[(1,3-thiazol-4-ylacetyl)amino]-1H-pyrazol-5-yl}cyclopentyl (1-methylcyclopropyl)carbamate], the inhibitory constant (Ki) stood at 0.6 nM.
Consider `Cc1ccnc(CC(=O)Nc2cc([C@H]3CC[C@@H](OC(=O)NC4(C)CC4)C3)[nH]n2)c1` [Example 425, (1R,3S)-3-(3-{[(4-methylpyridin-2-yl)acetyl]amino}-1H-pyrazol-5-yl)cyclopentyl (1-methylcyclopropyl)carbamate], for which the Ki turned out to be 1.05 nM.
`Cc1cccnc1CC(=O)Nc1cc([C@H]2CC[C@@H](OC(=O)NC3(C)CC3)C2)[nH]n1` [Example 427, (1R,3S)-3-(3-{[(3-methylpyridin-2-yl)acetyl]amino}-1H-pyrazol-5-yl)cyclopentyl (1-methylcyclopropyl)carbamate]: the Ki was found to be 1.78 nM.
Then `CC1(NC(=O)O[C@@H]2CC[C@H](c3cc(NC(=O)Cc4ncccc4F)n[nH]3)C2)CC1` [Example 429, (1R,3S)-3-(3-{[(3-fluoropyridin-2-yl)acetyl]amino}-1H-pyrazol-5-yl)cyclopentyl (1-methylcyclopropyl)carbamate], with 1.15 nM; and `CC1(NC(=O)O[C@@H]2CC[C@H](c3cc(NC(=O)Cc4ccc(F)cn4)n[nH]3)C2)CC1` [Example 430, (1R,3S)-3-(3-{[(5-fluoropyridin-2-yl)acetyl]amino}-1H-pyrazol-5-yl)cyclopentyl (1-methylcyclopropyl)carbamate], with 1.14 nM; and `Cc1nc(CC(=O)Nc2cc([C@H]3CC[C@@H](OC(=O)NC4(C)CC4)C3)[nH]n2)cs1` [Example 431, (1R,3S)-3-(3-{[(2-methyl-1,3-thiazol-4-yl)acetyl]amino}-1H-pyrazol-5-yl)cyclopentyl (1-methylcyclopropyl)carbamate], with 1.19 nM.
Then `CC1(NC(=O)O[C@@H]2CC[C@H](c3cc(NC(=O)Cc4coc(C5CC5)n4)n[nH]3)C2)CC1` [Example 432, (1R,3S)-3-(3-{[(2-cyclopropyl-1,3-oxazol-4-yl)acetyl]amino}-1H-pyrazol-5-yl)cyclopentyl (1-methylcyclopropyl)carbamate], with 1.25 nM; and `Cc1ccc(F)c(CC(=O)Nc2cc([C@H]3CC[C@@H](OC(=O)NC4(C)CC4)C3)[nH]n2)n1` [Example 435, (1R,3S)-3-(3-{[(3-fluoro-6-methylpyridin-2-yl)acetyl]amino}-1H-pyrazol-5-yl)cyclopentyl (1-methylcyclopropyl)carbamate], with 1.49 nM.
For the compound `CC(C)n1cc(CC(=O)Nc2cc([C@H]3CC[C@@H](OC(=O)NC4(C)CC4)C3)[nH]n2)nn1` [Example 436, (1R,3S)-3-[3-({[1-(propan-2-yl)-1H-1,2,3-triazol-4-yl]acetyl}amino)-1H-pyrazol-5-yl]cyclopentyl (1-methylcyclopropyl)carbamate], the Ki came to 3.3 nM.
Regarding `Cc1cnc(CC(=O)Nc2cc([C@H]3CC[C@@H](OC(=O)NC4(C)CC4)C3)[nH]n2)c(Cl)c1` [Example 438, (1R,3S)-3-(3-{[(3-chloro-5-methylpyridin-2-yl)acetyl]amino}-1H-pyrazol-5-yl)cyclopentyl (1-methylcyclopropyl)carbamate], the Ki is 2.5 nM.
As for `Cc1cc(Cl)cnc1CC(=O)Nc1cc([C@H]2CC[C@@H](OC(=O)NC3(C)CC3)C2)[nH]n1` [Example 439, (1R,3S)-3-(3-{[(5-chloro-3-methylpyridin-2-yl)acetyl]amino}-1H-pyrazol-5-yl)cyclopentyl (1-methylcyclopropyl)carbamate], the inhibitory constant (Ki) is 2.37 nM.
Take `Cc1cc(CC(=O)Nc2cc([C@H]3CC[C@@H](OC(=O)NC4(C)CC4)C3)[nH]n2)ncc1Cl` [Example 440, (1R,3S)-3-(3-{[(5-chloro-4-methylpyridin-2-yl)acetyl]amino}-1H-pyrazol-5-yl)cyclopentyl (1-methylcyclopropyl)carbamate]: the Ki worked out at 1.47 nM.
Then `Cc1ccnc(CC(=O)Nc2cc([C@H]3CC[C@@H](OC(=O)NC4(C)CC4)C3)[nH]n2)c1Cl` [Example 441, (1R,3S)-3-(3-{[(3-chloro-4-methylpyridin-2-yl)acetyl]amino}-1H-pyrazol-5-yl)cyclopentyl (1-methylcyclopropyl)carbamate], with 1.42 nM; and `Cc1nc(CC(=O)Nc2cc([C@H]3CC[C@@H](OC(=O)NC4(C)CC4)C3)[nH]n2)ccc1Cl` [Example 442, (1R,3S)-3-(3-{[(5-chloro-6-methylpyridin-2-yl)acetyl]amino}-1H-pyrazol-5-yl)cyclopentyl (1-methylcyclopropyl)carbamate], with 0.37 nM; and `CC1(NC(=O)O[C@@H]2CC[C@H](c3cc(NC(=O)Cc4cc(C(F)F)ccn4)n[nH]3)C2)CC1` [Example 443, (1R,3S)-3-[3-({[4-(difluoromethyl)pyridin-2-yl]acetyl}amino)-1H-pyrazol-5-yl]cyclopentyl (1-methylcyclopropyl)carbamate], with 0.36 nM.
Turning to `CC1(NC(=O)O[C@@H]2CC[C@H](c3cc(NC(=O)Cc4cc(C(F)(F)F)ccn4)n[nH]3)C2)CC1` [Example 444, (1R,3S)-3-[3-({[4-(trifluoromethyl)pyridin-2-yl]acetyl}amino)-1H-pyrazol-5-yl]cyclopentyl (1-methylcyclopropyl)carbamate], the Ki came to 1.41 nM.
For the compound `CC1(NC(=O)O[C@@H]2CC[C@H](c3cc(NC(=O)Cc4ccc(C(F)(F)F)cn4)n[nH]3)C2)CC1` [Example 445, (1R,3S)-3-[3-({[5-(trifluoromethyl)pyridin-2-yl]acetyl}amino)-1H-pyrazol-5-yl]cyclopentyl (1-methylcyclopropyl)carbamate], the Ki is 0.6 nM.
On to `CC1(NC(=O)O[C@@H]2CC[C@H](c3cc(NC(=O)Cc4cn(CC(F)(F)F)nn4)n[nH]3)C2)CC1` [Example 446, (1R,3S)-3-[3-({[1-(2,2,2-trifluoroethyl)-1H-1,2,3-triazol-4-yl]acetyl}amino)-1H-pyrazol-5-yl]cyclopentyl (1-methylcyclopropyl)carbamate], for which the Ki is 1.7 nM.
Consider `CCC1(NC(=O)O[C@@H]2CC[C@H](c3cc(NC(=O)Cc4ncc(C)o4)n[nH]3)C2)CC1` [Example 448, (1R,3S)-3-(3-{[(5-methyl-1,3-oxazol-2-yl)acetyl]amino}-1H-pyrazol-5-yl)cyclopentyl (1-ethylcyclopropyl)carbamate], for which the Ki was 0.29 nM.
`CCC1(NC(=O)O[C@@H]2CC[C@H](c3cc(NC(=O)Cc4cnc(C)cn4)n[nH]3)C2)CC1` [Example 449, (1R,3S)-3-(3-{[(5-methylpyrazin-2-yl)acetyl]amino}-1H-pyrazol-5-yl)cyclopentyl (1-ethylcyclopropyl)carbamate]: the Ki stood at 0.39 nM.
